Reference: patent publication EP1068226B1, “LIPOPEPTIDES INDUCING T LYMPHOCYTIC CYTOTOXICITY BEARING AT LEAST ONE AUXILIARY T EPITOPE, AND USES FOR VACCINATION” (INSTITUT NATIONAL DE LA SANTE ET DE LA RECHERCHE MEDICALE …, priority 1998, dated 1999)
Residues, ends and D or L forms follow the SMILES beside them. *: point of attachment. Palmitoyl = CCCCCCCCCCCCCCCC(=O)*

Experiments:
[1] = Solubility and filterability of the lipopeptides; assay type: physicochemical
Protocol: Le lipopeptide n° 3 est soluble dans l'acide acétique à 80%. Il peut être stérilisable par filtration sur un microfiltre de 0,22 µm. Il peut être en outre dissous dans une solution DMSO/eau 10% V/V. La mesure de la masse par spectrométrie PDMS-TOF confirme la présence du produit attendu. Le produit s'avère purifiable après injection d'une solution concentrée dans le DMSO, sur colonne Vydac C4, à 60°C, en utilisant un gradient d'acétonitrile, en présence du contre-ion TFA. Le produit est caractérisable par HPLC selon plusieurs méthodes résolutives conventionnelles, sur colonnes Vydac C4, Zorbax C3, Zorbax CN, Zorbax C1, à 60°C, à l'aide de gradients d'acétonitrile en présence d'un contre-ion TFA, ou en utilisant un modificateur organique, tel que l'isopropanol ou le butanol en isocratique.
Le trifluoroacétate du lipopeptide n°3 est soluble dans le DMSO (20-25 mg/mL), et reste soluble après dilution par de l'eau (DMSO 10%). L'échange du contre-ion trifluoroacétate pour un contre-ion acétate peut être réalisé par RP-HPLC sur une colonne C4: le produit dissous dans le DMSO à 80% est injecté sur la colonne équilibrée par le solvant A (acide acétique à 5% dans l'eau). Après élimination des produits non retenus (contre-ions TFA, sels), le produit est élué par l'aide d'un gradient du solvant A vers le solvant B (acétonitrile 80% - acide acétique à 5% - eau 15%). […]

[2] = system: CTL spécifiques dans les PBMC de patients séropositifs pour HIV; experiment: ELISPOT IFN-γ test on human PBMC of HIV-seropositive donors (antigenicity); assay type: cell-based, homme; conditions: PBMC of patient HLA-B7 Z118; figure 6c
Protocol: Des donneurs séropositifs pour HIV ont été sélectionnés pour leur expression en molecules HLA de classe I selon des données bien connues de l'homme du métier en matière de restriction vis-à-vis des peptides et lipopeptides.
Des microplaques de nitrocellulose (Millipore, Bedford, MA) ont été incubées pendant la nuit à 4°C avec 1 µg/ml d'un anticorps de capture anti-Interféron-γ humain dilué dans un tampon carbonate/bicarbonate à pH 9,6 (100 µl/puits). Après cinq lavages, les plaques ont été saturées pendant 2 heures à 37°C avec 200 µl puis lavées. Pour les cultures de cellules humaines, le milieu complet était composé de RPMI 1640, 10% de sérum albumine bovine, 2mM glutamine, d'antibiotiques et de β2-mercaptoéthanol (5 x 10^-5M). Pour le test avec le peptide, des PBMC de patients ont été ajoutés directement dans les microplaques de nitrocellulose (2 x 10^5 cellules/puits) et incubés pendant 24 heures à 37°C en présence de […] du peptide. Pour le test des lipopeptides, les PBMC ont été incubés pendant la nuit à 37 °C avec les lipopeptides, puis ont été lavés et irradiés (3000 rads). Ces cellules ont été utilisées comme cellules stimulatrices dans une co-culture (2 x 10^5 cellules par puits) avec des PBMC syngéniques ( rapport 1/1) dans des plaques de nitrocellulose pendant 24 heures à 37°C. […]

CCCCCCCCCCCCCCCC(=O)NCCCC[C@H](NC(=O)CCCCCCCCCCCCCCC)C(=O)N[C@@H](CO)C(=O)N[C@@H](CO)C(=O)N[C@@H](CCC(N)=O)C(=O)N[C@@H](Cc1ccc(O)cc1)C(=O)N[C@H](C(=O)N[C@@H](CCCCN)C(=O)N[C@@H](C)C(=O)N[C@@H](CC(N)=O)C(=O)N[C@@H](CO)C(=O)N[C@@H](CCCCN)C(=O)N[C@@H](Cc1ccccc1)C(=O)N[C@H](C(=O)NCC(=O)N[C@H](C(=O)N[C@H](C(=O)N[C@@H](CCC(=O)O)C(=O)N[C@@H](CCCNC(=N)N)C(=O)NCC(=O)N[C@@H](CCCNC(=N)N)C(=O)N[C@@H](C)C(=O)N[C@@H](C)C(=O)NCC(=O)N[C@H](C(=O)NCC(=O)N[C@H](C(=O)N[C@@H](CC(C)C)C(=O)N[C@H](C(=O)N[C@H](C(=O)O)C(C)C)[C@@H](C)O)[C@@H](C)CC)[C@@H](C)CC)[C@@H](C)O)[C@@H](C)CC)[C@@H](C)CC)[C@@H](C)CC [lipopeptide n°2] (Palmitoyl-K(Palmitoyl)SSQYIKANSKFIGITERGRAAGIGILTV-OH)
solubilité dans l'eau ([1]; water): comportement voisin du lipopeptide n°1

CCCCCCCCCCCCCCCC(=O)NCCCC[C@H](N)C(=O)N[C@@H](CO)C(=O)N[C@@H](CO)C(=O)N[C@@H](CCC(N)=O)C(=O)N[C@@H](Cc1ccc(O)cc1)C(=O)N[C@H](C(=O)N[C@@H](CCCCN)C(=O)N[C@@H](C)C(=O)N[C@@H](CC(N)=O)C(=O)N[C@@H](CO)C(=O)N[C@@H](CCCCN)C(=O)N[C@@H](Cc1ccccc1)C(=O)N[C@H](C(=O)NCC(=O)N[C@H](C(=O)N[C@H](C(=O)N[C@@H](CCC(=O)O)C(=O)N[C@@H](CCCNC(=N)N)C(=O)NCC(=O)N[C@@H](CCCNC(=N)N)C(=O)N[C@@H](C)C(=O)N[C@@H](C)C(=O)NCC(=O)N[C@H](C(=O)NCC(=O)N[C@H](C(=O)N[C@@H](CC(C)C)C(=O)N[C@H](C(=O)N[C@H](C(=O)O)C(C)C)[C@@H](C)O)[C@@H](C)CC)[C@@H](C)CC)[C@@H](C)O)[C@@H](C)CC)[C@@H](C)CC)[C@@H](C)CC [lipopeptide n°4] (H-K(Palmitoyl)SSQYIKANSKFIGITERGRAAGIGILTV-OH)
solubilité en milieu aqueux ([1]; aqueous medium): n'est soluble en milieu aqueux qu'en présence de DMSO

CCCCCCCCCCCCCCCC(=O)NCCCC[C@H](NC(=O)CCCCCCCCCCCCCCC)C(=O)N[C@@H](CO)C(=O)N[C@@H](CO)C(=O)N[C@@H](CCC(N)=O)C(=O)N[C@@H](Cc1ccc(O)cc1)C(=O)N[C@H](C(=O)N[C@@H](CCCCN)C(=O)N[C@@H](C)C(=O)N[C@@H](CC(N)=O)C(=O)N[C@@H](CO)C(=O)N[C@@H](CCCCN)C(=O)N[C@@H](Cc1ccccc1)C(=O)N[C@H](C(=O)NCC(=O)N[C@H](C(=O)N[C@H](C(=O)N[C@@H](CCC(=O)O)C(=O)N[C@@H](C)C(=O)N[C@@H](C)C(=O)N[C@@H](C)C(=O)N[C@@H](C)C(=O)N[C@@H](C)C(=O)NCC(=O)N[C@H](C(=O)NCC(=O)N[C@H](C(=O)N[C@@H](CC(C)C)C(=O)N[C@H](C(=O)N[C@H](C(=O)O)C(C)C)[C@@H](C)O)[C@@H](C)CC)[C@@H](C)CC)[C@@H](C)O)[C@@H](C)CC)[C@@H](C)CC)[C@@H](C)CC [lipopeptide n° 1] (Palmitoyl-K(Palmitoyl)SSQYIKANSKFIGITEAAAAAGIGILTV-OH)
solubilité dans un mélange DMSO/eau 10% V/V [1]: pratiquement insoluble
solubilité dans l'eau ([1]; water): pratiquement insoluble
solubilité dans l'eau après lyophilisation ([1]; water, after lyophilisation): totalement insoluble

CCCCCCCCCCCCCCCC(=O)NCCCC[C@H](NC(=O)CCCCCCCCCCCCCCC)C(=O)NCC(=O)N[C@@H](CCCNC(=N)N)C(=O)N[C@@H](CCC(N)=O)C(=O)N[C@@H](Cc1ccc(O)cc1)C(=O)N[C@H](C(=O)N[C@@H](CCCCN)C(=O)N[C@@H](C)C(=O)N[C@@H](CC(N)=O)C(=O)N[C@@H](CO)C(=O)N[C@@H](CCCCN)C(=O)N[C@@H](Cc1ccccc1)C(=O)N[C@H](C(=O)NCC(=O)N[C@H](C(=O)N[C@H](C(=O)N[C@@H](CCC(=O)O)C(=O)N[C@@H](CCCNC(=N)N)C(=O)NCC(=O)N[C@@H](CCCNC(=N)N)C(=O)N[C@@H](C)C(=O)N[C@@H](C)C(=O)NCC(=O)N[C@H](C(=O)NCC(=O)N[C@H](C(=O)N[C@@H](CC(C)C)C(=O)N[C@H](C(=O)N[C@H](C(=O)O)C(C)C)[C@@H](C)O)[C@@H](C)CC)[C@@H](C)CC)[C@@H](C)O)[C@@H](C)CC)[C@@H](C)CC)[C@@H](C)CC [lipopeptide n° 3] (Palmitoyl-K(Palmitoyl)GRQYIKANSKFIGITERGRAAGIGILTV-OH)
solubilité dans un mélange DMSO/eau 10% V/V [1]: dissous
solubilité dans l'acide acétique à 80% ([1]; acide acétique à 80%): soluble
solubilité ([1]; acétate salt, compared with the trifluoroacétate): comparable à celle du trifluoroacétate
stérilisation par filtration ([1]; microfiltre de 0,22 µm): stérilisable
solubilité dans le DMSO ([1]; trifluoroacétate salt, DMSO): 20 to 25 mg/mL
solubilité après dilution par de l'eau ([1]; trifluoroacétate salt, DMSO solution diluted with water (DMSO 10%)): reste soluble

NEF 68-76: épitope potentiel de HLA-B7 (FPVTPQVPL; UniProt P04601 68-76, looked up, fragment)
antigénicité (ELISPOT Interféron-γ) [2]: induit efficacement une réponse CTL spécifique
